Experimental data as given in patent publication US7772252B2, “Heterocyclic substituted carbonyl derivatives and their use as dopamine D3 receptor ligands” (Aventis Pharmaceuticals Inc., priority 2001, dated 2010).

target: T1, cloned human dopamine D3 receptors (Homo sapiens, UniProt P35462); assay: [N-Methyl-3H]Spiroperidol binding to cloned human dopamine D3 receptors; conditions: D3 Ki
T1 construct: expressed in transfected cells; membrane homogenate
Excerpt: [N-Methyl-^3H]Spiroperidol Binding to Cloned Human Dopamine D3 Receptors
This assay measures the in vitro activity of compounds on cloned human dopamine (D3) receptors and predicts the direct dopamine-blocking properties of putative neuropsychiatric agents at human dopamine D3 receptors.
The D3 gene was isolated from a human striatal cDNA library (Stratagene). The gene was sequenced and sub-cloned into the expression vector RC/RSV (Invitrogen). CHO (Chinese Hamster Ovary) cells were stably transfected with 10 μg of the D3/RSV plasmid using the DOTAP method from Boehringer Mannheim and 72 clones that were G418 resistant were isolated. Using mRNA and binding displacement data a single high expressing clone was identified. This clone was then grown in large batches for the purpose of developing a 96 well format assay.
• 1. One plate (10 cm) with approximately 2-3 million D3 cells per plate is incubated with 1 ml of Trypsin-EDTA at room temperature for ˜2 min or until cells have lifted off plates. Four ml of Ham's F12+10% Fetal Bovine Serum+1% Penicillin/Streptomycin+G418 (400 μg/ml) medium are added to resuspend cells and 1 ml of this is added to each large plate (15 cm) containing 19 ml of the same medium as mentioned above. • 2. The 5 large plates are incubated at 37° C.+5% CO2 for ˜3 days or until the cells are confluent. • 3. After these plates are confluent, they are split into 10 large plates. Medium is aspirated off, 2 ml of Trypsin-EDTA are added to each plate and plates are incubated at RT for 2 min or until cells have lifted off the plate. Eight ml of the F12 medium (same medium as #1 above) are added to each plate (10 ml total) to resuspend the cells and 5 ml are transferred to the 2 new plates containing 15 ml of the F12 media. • 4. The 10 large plates are incubated at 37° C.+5% CO2 for ˜2 days or until the cells are confluent. • 5. The 10 large plates are split into 60 large plates (using Trypsin-EDTA as #3 except 4 ml of F12 medium are added to resuspend cells and 1 ml is aliquoted to 6 new plates containing 19 ml of F12 medium each). • 6. Plates are incubated at 37° C.+5% CO2 for ˜3 days or until cell are confluent. • 7. The 60 large plates are then split into 60 roller bottles (100-150 million cells/bottle). Medium is aspirated off, 2 ml of Trypsin-EDTA are added to each plate and incubated at RT for ˜2 minutes or until cells have lifted off plates. Eight ml of F12 medium are added to each plate to resuspend cells and the entire 10 ml are added to 1 roller bottle containing 90 ml of the F12 medium. • 8. The 60 roller bottles are immediately placed on their sides and transferred to the roller bottle incubator. They are incubated at 37° C.+5% CO2 for ˜3-5 days. Cells are spun at 30-40% motor speed in the Form a incubator. • 9. Medium is poured off and cells are washed 2× in PBS. • 10. Cells are then scraped off in 20 ml of PBS and the bottles are rinsed again with 5 ml of PBS to remove any remaining cells. Cells are stored on ice before membrane preparation. • 11. The yield for 60 D3 roller bottles has varied from ˜260-500 mg. • Note: All tissue culture reagents are from Gibco-BRL. C. Membrane Preparation
The cells are harvested into 250 ml centrifuge tubes with 100 volumes of cold phosphate buffered saline (PBS) and spun down (1200×G for 10 min at 4° C.). The medium is removed and 100 ml PBS are added to each centrifuge tube, cells are resuspened and spun down again. The PBS is removed and the final pellet is homogenized in an appropriate volume of 10% DMSO with a polytron on ice at a medium setting.
A 200 μl sample membrane homogenate is added to 200 μl of 1% SDS, vortexed and allowed to stand for 5 min. Aliquots (25, 50 and 100 μl) of this mixture are assayed in duplicate following the standard Bio-Rad DC protein assay protocol (kit catalog number 500-0112) and using reagent S. Absorbance readings are made at 750 nm (note: the most accurate protein OD readings are between 0.1-0.5 units). […]

T1 sequence (P35462 whole entry): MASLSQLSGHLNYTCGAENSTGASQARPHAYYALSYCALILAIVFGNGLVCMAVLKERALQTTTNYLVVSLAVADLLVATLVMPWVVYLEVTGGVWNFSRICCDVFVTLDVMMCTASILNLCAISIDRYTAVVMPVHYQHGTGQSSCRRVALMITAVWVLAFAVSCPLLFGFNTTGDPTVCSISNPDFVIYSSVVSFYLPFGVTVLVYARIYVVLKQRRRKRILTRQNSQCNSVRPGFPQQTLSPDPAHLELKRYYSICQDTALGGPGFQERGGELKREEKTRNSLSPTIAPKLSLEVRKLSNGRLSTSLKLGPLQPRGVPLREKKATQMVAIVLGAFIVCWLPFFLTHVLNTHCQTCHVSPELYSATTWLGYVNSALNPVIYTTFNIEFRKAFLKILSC

Question: For `O=C([C@@H]1C[C@H]1CN1CCN(c2csc3cc(C(F)(F)F)ccc23)CC1)N1CCC(Nc2ccc(Cl)cc2)CC1` [compound 832495], which Ki is on record?
Answer: 63.6 nM

same assay, conditions: read-out: D3 Ki

Question: Which Ki does the source give for `O=C([C@@H]1C[C@H]1CN1CCC(c2noc3ccsc23)CC1)N1CCC(CCN2CCCC2)CC1` [compound 833509] here?
Answer: 41.5 nM

Question: `O=C(C1CC1CN1CCC(c2noc3ccsc23)CC1)N1CCC(Oc2ccc(F)cc2)CC1` (racemic) [compound 829595] was tested. Which Ki did it give?
Answer: 201 nM

Question: How did the Ki turn out when `O=C(C1CC1CN1CCC(c2noc3ccsc23)CC1)N1CCN(c2ccc(OCc3ccccc3)cc2)CC1` (racemic) [compound 832059] was run?
Answer: 4.13 nM

Question: For `Cn1nc(C2CCN(C[C@@H]3C[C@H]3C(=O)NCC3CCNCC3)CC2)c2cccc(C(F)(F)F)c21` [A002440433A], which Ki is on record?
Answer: 180 nM

Question: Which Ki does the source give for `O=C(NC1CC1)[C@@H]1C[C@H]1CN1CCC(c2noc3ccsc23)CC1` [compound 829460] here?
Answer: 158 nM

Question: For `CC(C)(C)OC(=O)N1CCC(NC(=O)[C@@H]2C[C@H]2CN2CCN(c3csc4cc(C(F)(F)F)ccc34)CC2)CC1` [compound 832499], which Ki is on record?
Answer: 19.7 nM

Question: For `O=C(NCCCn1ccnc1)[C@@H]1C[C@H]1CN1CCC(c2nsc3cc(Br)ccc23)CC1` [A002329097], which Ki is on record?
Answer: 101 nM

Question: Which Ki does the source give for `O=C([C@@H]1C[C@H]1CN1CCC(c2noc3ccsc23)CC1)N1CCC(Cc2ccccc2)CC1` [compound 831194] here?
Answer: 5.06 nM

Question: Which Ki does the source give for `CC1CCC(NC(=O)C2CC2CN2C3CCC2CC(c2n[nH]c4ccccc24)C3)CC1` (stereo not shown) [compound 830115] here?
Answer: 45.3 nM

Question: How did the Ki turn out when `O=C(NCCCCc1ccccc1)[C@@H]1C[C@H]1CN1CCC(c2noc3ccsc23)CC1` [compound 831047] was run?
Answer: 2.87 nM

Question: How did the Ki turn out when `COc1ccccc1CN1CCC(NC(=O)[C@@H]2C[C@H]2CN2CCC(c3noc4ccsc34)CC2)CC1` [compound 832724] was run?
Answer: 1.44 nM

Question: Which Ki does the source give for `O=C(NC1CCN(Cc2ccccc2Cl)CC1)[C@@H]1C[C@H]1CN1CCN(c2csc3cc(C(F)(F)F)ccc23)CC1` [compound 832741] here?
Answer: 6.03 nM

Question: With `CN1CCCC1CCNC(=O)[C@@H]1C[C@H]1CN1CCN(c2csc3cc(C(F)(F)F)ccc23)CC1` (mixture of isomers) [compound 831884] as the compound, how does the Ki read?
Answer: 1.94 nM

Question: `CCC1CCC(NC(=O)C2CC2CN2CCN(c3nn(-c4ccc(C(F)(F)F)cc4)c4ccccc34)CC2)CC1` (racemic) [compound 830046] was tested. Which Ki did it give?
Answer: 16.5 nM

Question: Which Ki does the source give for `O=C(NCCCN1CCCCC1)[C@@H]1C[C@H]1CN1CCN(c2csc3ncccc23)CC1` [A002437094] here?
Answer: 91.9 nM

Question: With `O=C(N[C@H]1CC[C@H](O)CC1)[C@@H]1C[C@H]1CN1CCC(c2noc3c(C(F)(F)F)cccc23)CC1` [compound 832271] as the compound, how does the Ki read?
Answer: 112 nM

Question: Which Ki does the source give for `O=C(NCC1CCNCC1)[C@@H]1C[C@H]1CN1CCC(c2noc3ccsc23)CC1` [compound 833386] here?
Answer: 36.5 nM

Question: For `C[C@H]1CC[C@H](NC(=O)[C@@H]2C[C@H]2CN2CCC(c3nn(-c4cccnc4)c4ccccc34)CC2)CC1` [compound 833695], which Ki is on record?
Answer: 176 nM

Question: For `O=C(NCCCn1ccnc1)[C@@H]1C[C@H]1CN1CCC(c2cc3ccccc3s2)CC1` [compound 831488], which Ki is on record?
Answer: 0.725 nM

Question: Which Ki does the source give for `O=C([C@@H]1C[C@H]1CN1CCN(c2csc3cc(C(F)(F)F)ccc23)CC1)N1CCCC(CN2CCCCC2)C1` (mixture of isomers) [A002437357] here?
Answer: 14 nM

Question: How did the Ki turn out when `CN1CCN(CCCNC(=O)[C@@H]2C[C@H]2CN2CCC(c3csc4cc(C(F)(F)F)ccc34)CC2)CC1` [A002437517] was run?
Answer: 10.5 nM

Question: Which Ki does the source give for `O=C(NCCc1cccc(C(F)(F)F)c1)[C@@H]1C[C@H]1CN1CCC(c2noc3ccsc23)CC1` [compound 833130] here?
Answer: 8.85 nM

Question: How did the Ki turn out when `O=C(NC1CCN(Cc2ccc(C(F)(F)F)cc2)CC1)[C@@H]1C[C@H]1CN1CCC(c2noc3ccsc23)CC1` [compound 833160] was run?
Answer: 2.09 nM

Question: Which Ki does the source give for `CC1CCC(NC(=O)C2CC2CN2CCC(Cc3ccccc3)CC2)CC1` (racemic) [compound 827209] here?
Answer: 30.4 nM

Question: With `COc1ccc2c(c1)c(N1CCN(C[C@@H]3C[C@H]3C(=O)NCCCN3CCCCC3)CC1)nn2C` [compound 833120] as the compound, how does the Ki read?
Answer: 138 nM

Question: With `O=C(NCCc1cccs1)C1CC1CN1CCC(c2noc3ccsc23)CC1` (racemic) [compound 831385] as the compound, how does the Ki read?
Answer: 22.7 nM

Question: For `O=C(N[C@H]1CC[C@H](O)CC1)[C@@H]1C[C@H]1CN1CCN(c2nn(-c3ccc(OC(F)(F)F)cc3)c3ccsc23)CC1` [compound 833855], which Ki is on record?
Answer: 12.4 nM

Question: Which Ki does the source give for `CCC1CCC(NC(=O)C2CC2CN2CCN(Cc3ccc4c(c3)OCO4)CC2)CC1` (racemic) [compound 827240] here?
Answer: 152 nM

Question: With `O=C(C1CC1CN1CCC(c2noc3ccsc23)CC1)N1CCN(C2CCCC2)CC1` (racemic) [compound 832196] as the compound, how does the Ki read?
Answer: 22.9 nM

Question: With `O=C(C1CC1CN1CCC(c2noc3ccsc23)CC1)N1CCN(Cc2ccc3c(c2)OCO3)CC1` (racemic) [compound 832165] as the compound, how does the Ki read?
Answer: 30.1 nM

Question: With `CCC1CCC(NC(=O)C2CC2CN2CCN(c3nn(-c4ccccc4)c4cc(F)ccc34)CC2)CC1` (racemic) [compound 830129] as the compound, how does the Ki read?
Answer: 4.16 nM

Question: With `Cn1nc(C2CCN(C[C@@H]3C[C@H]3C(=O)NCCCN3CCCCC3)CC2)c2sccc21` [A002436290] as the compound, how does the Ki read?
Answer: 520 nM

Question: How did the Ki turn out when `O=C(C1CC1CN1CCC(c2noc3ccsc23)CC1)N1CCC(c2nc3ccccc3s2)CC1` (racemic) [compound 831702] was run?
Answer: 27.9 nM

Question: Which Ki does the source give for `O=C(NC1CCN(CC2CC2)CC1)C1CC1CN1CCC(c2noc3ccsc23)CC1` (racemic) [compound 832341] here?
Answer: 2.63 nM

Question: `O=C(NCCc1ccc(F)cc1)C1CC1CN1CCC(c2noc3ccsc23)CC1` (racemic) [compound 831802] was tested. Which Ki did it give?
Answer: 13.4 nM

Question: How did the Ki turn out when `O=C([C@@H]1C[C@H]1CN1CCN(c2csc3cc(C(F)(F)F)ccc23)CC1)N1CCC(Cn2ccnc2)CC1` [compound 831958] was run?
Answer: 13 nM

Question: `O=C(C1CC1CN1CCC(c2noc3ccsc23)CC1)N1CCC(CCN2CCCC2)CC1` (racemic) [compound 832198] was tested. Which Ki did it give?
Answer: 5.81 nM

Question: Which Ki does the source give for `COc1cccc2c(C3CCN(C[C@@H]4C[C@H]4C(=O)N4CCC(C(=O)c5ccc(F)cc5)CC4)CC3)noc12` [compound 831810] here?
Answer: 124 nM

Question: `O=C(NCCCn1cnc2ccccc21)[C@@H]1C[C@H]1CN1CCC(c2noc3ccsc23)CC1` [compound 831377] was tested. Which Ki did it give?
Answer: 4.68 nM

Question: For `CN1CCCC1CCNC(=O)[C@@H]1C[C@H]1CN1CCC(c2noc3ccsc23)CC1` (single isomer, unassigned) [compound 832513], which Ki is on record?
Answer: 55.4 nM

Question: For `O=C(NCCN1CCNCC1)[C@@H]1C[C@H]1CN1CCN(c2csc3cc(C(F)(F)F)ccc23)CC1` [compound 833322], which Ki is on record?
Answer: 12.8 nM

Question: `O=C(C1CC1CN1CCC(c2noc3ccsc23)CC1)N1CCN(S(=O)(=O)Cc2ccccc2)CC1` (racemic) [compound 831837] was tested. Which Ki did it give?
Answer: 491 nM

Question: For `CC[C@H]1CC[C@H](NC(=O)[C@@H]2C[C@H]2CN2CCN(c3nn(C)c4ccc(OC)cc34)CC2)CC1` [832747ES], which Ki is on record?
Answer: 1.05 nM

Question: How did the Ki turn out when `C[C@H]1CC[C@H](NC(=O)[C@H]2C[C@@H]2CN2CCC(c3cc4ccccc4s3)CC2)CC1` [compound 831147] was run?
Answer: 40.8 nM

Question: How did the Ki turn out when `O=C(NCCc1ccccc1)C1(CCN2CCN(c3csc4cc(C(F)(F)F)ccc34)CC2)CC1` [compound 832519] was run?
Answer: 97.5 nM

Question: With `CC(C)(C)OC(=O)NCCN1CCN(C(=O)[C@@H]2C[C@H]2CN2CCN(c3csc4cc(C(F)(F)F)ccc34)CC2)CC1` [compound 833278] as the compound, how does the Ki read?
Answer: 7.04 nM

Question: Which Ki does the source give for `COc1cccc2c(C3CCN(C[C@@H]4C[C@H]4C(=O)N[C@H]4CC[C@H](C)CC4)CC3)noc12` [compound 831809] here?
Answer: 0.0284 nM

Question: With `O=C(N[C@H]1CC[C@H](O)CC1)[C@@H]1C[C@H]1CN1CCN(c2nn(-c3cccc(F)c3)c3ccsc23)CC1` [A002243404] as the compound, how does the Ki read?
Answer: 492 nM
